Measured values published in patent publication US20240109881A1, “Heteroaryl Compounds as Ligand Directed Degraders of IRAK4” (Bristol-Myers Squibb Company, priority 2022, published 2024).
One block for each compound: values may come before it.

Experiments:
[1] = molecular target: T1, IRAK4 (Homo sapiens, UniProt Q9NWZ3); experiment: ALE THP1 HTRF (Advanced Lipoxidation End Product THP1 Homogeneous Time Resolved Fluorescence); format: cell-based; conditions: THP1 cells
T1 construct: endogenous in cells; host or cells: THP-1 cells
T1 sequence (Q9NWZ3 1-460): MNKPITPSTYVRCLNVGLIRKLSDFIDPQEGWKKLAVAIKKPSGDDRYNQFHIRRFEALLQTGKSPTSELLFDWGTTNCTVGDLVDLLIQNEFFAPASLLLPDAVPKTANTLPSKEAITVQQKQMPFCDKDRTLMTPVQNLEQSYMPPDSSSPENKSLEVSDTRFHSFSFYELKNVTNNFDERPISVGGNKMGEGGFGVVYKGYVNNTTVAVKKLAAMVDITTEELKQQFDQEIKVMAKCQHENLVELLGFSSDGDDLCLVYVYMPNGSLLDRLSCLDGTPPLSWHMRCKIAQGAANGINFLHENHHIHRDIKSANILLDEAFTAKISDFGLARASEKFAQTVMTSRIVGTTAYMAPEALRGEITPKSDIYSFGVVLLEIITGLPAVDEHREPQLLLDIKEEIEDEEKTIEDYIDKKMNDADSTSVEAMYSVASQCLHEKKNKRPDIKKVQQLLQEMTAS
Protocol: For Homogenous Time Resolved Fluorescence (HTRF) assays, a Cisbio HTRF kit was used, which included: Lysis Buffer #1 4×, Blocking Reagent #3 100×, 20× Antibody 1 (Anti-IRAK4 d2), 20× Antibody 2 (Anti-IRAK4 k), and Detection Buffer.
4× Lysis Buffer was stored at 4° C. For use as 1× Lysis buffer, the 4× solution was diluted with de-ionized water (distilled water, Gibco Cat. #15230279) and 100× Blocking Reagent in a 1:3:0.04 volume ratio.
20× Antibody Solution aliquots were stored in −80° C. and the Detection Buffer was stored in 4° C. For use as a 1× Antibody Solution, the 20× Antibody Solution aliquot was diluted with Detection Buffer in a 1:19 volume ratio.
Cells were lysed at room temperature for 45 min with shaking. A BCA protein assay was performed and normalization was conducted to the desired total protein concentration with 1× lysis buffer. Next, 1× Antibody Solutions were prepared by adding 380 μL Detection Buffer to 20 μL 20× Antibody Solution aliquots and mixing well. 1× Antibody Solutions were combined 1:1 and briefly vortexed. For control wells, 20 μL 1× anti IRAK4-k Antibody Solution was saved. The 384-well plate (ProxiPlate-384 Plus, Perkin Elmer Cat. #6008289) was loaded by adding 4 μL of the mixed Antibody Solution to empty wells using a single channel repeater. Using a multi-channel repeater, 16 μL lysate was added per well, and any bubbles that were formed were popped with 20 μL pipette tips and Kimwipe edges. In column 10, triplicates of each control was prepared. In wells A10, B10, and C10, buffer control was prepared by adding 16 μL Lysis Buffer and 4 μL Detection Buffer. In wells D10, E10, and F10, cryptate control was prepared by adding 16 μL Lysis Buffer, 2 μL Detection Buffer, and 2 μL 1× anti IRAK4-k Antibody Solution. In wells G10, H10, and I10, a negative control was prepared by adding 16 μL Lysis Buffer and 4 μL mixed Antibody Solution. The plate was sealed with a clear seal and covered with an aluminum lid. The plate was spun down at 800 g for 5 min and incubated in the dark at room temperature overnight. The next day, the plate was spun down at 800 g for 5 min. The samples were analyzed by a plate reader (Envision, PerkinElmer) using the Desnor 384 HTRF program.

[2] = molecular target: T1, IRAK4; experiment: LVL THP1 HTRF (THP1 Homogeneous Time Resolved Fluorescence); format: cell-based; conditions: THP1 cells, 18 h incubation with compound; for DC50: read-out: LVL THP1 HTRF EC50
Method in brief: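 THP-1 cells in phenol red-free RPMI with 10% FBS were dosed with compound (20 nL in DMSO) for 18 h at 37° C. After 2 h lysis, IRAK4 was detected with anti-IRAK4-d2/anti-IRAK4-K HTRF antibodies for 18 h at room temperature and read at 665/615 nm; a parallel CTG plate was run.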

SMILES: N#Cc1cnc2c(cnn2-c2cc(NC3CCCC3)c(C(=O)NC3CCC(C(=O)Nc4ccc(C(=O)Nc5ccc(C6CCC(=O)NC6=O)cc5)cc4)CC3)cn2)c1 (stereo not drawn) [P-20]
ALE THP1 HTRF YMIN [1]: 30.9%
EC50 [1]: 1630 nM

SMILES: O=C1CCC(N2C(=O)c3ccc(N4CCN(C(=O)C5CCC(NC(=O)c6cnc(Nc7ccc8ncoc8c7)cc6NC6CCCC6)CC5)CC4)cc3C2=O)C(=O)N1 (stereo not drawn) [P-12]
ALE THP1 HTRF YMIN [1]: 47.7%

SMILES: CC(C)(O)CNc1cc(-n2ncc3cc(C#N)cnc32)ncc1C(=O)N[C@H]1CC[C@H](CCN2CCN(c3ccc(C4CCC(=O)NC4=O)cc3)CC2)CC1 (stereo partly drawn) [P-108]
ALE THP1 HTRF YMIN [1]: 11.0%
EC50 [1]: 32 nM

SMILES: O=C1CCC(c2ccc(NCC3CCN(C(=O)C4CCC(NC(=O)c5cnc(Nc6ccc7ncsc7c6)cc5NC5CCCC5)CC4)CC3)cc2)C(=O)N1 (stereo not drawn) [P-11]
ALE THP1 HTRF YMIN [1]: 47.5%
EC50 [1]: 1 nM

SMILES: CC1(Nc2cc(-n3ncc4cc(C#N)cnc43)ncc2C(=O)NC2CCC(C(=O)N3CCN(c4ccc5c(c4)C(=O)N(C4CCC(=O)NC4=O)C5)CC3)CC2)CC1 (stereo not drawn) [P-25]
ALE THP1 HTRF YMIN [1]: 20.1%
EC50 [1]: 12 nM

SMILES: N#Cc1cnc2c(cnn2-c2cc(NC3CCCC3)c(-c3cn([C@H]4CC[C@H](CN5CCC(CNc6ccc(C7CCC(=O)NC7=O)cc6)CC5)CC4)nn3)cn2)c1 (stereo partly drawn) [P-44]
ALE THP1 HTRF YMIN [1]: 38.8%
EC50 [1]: 172 nM

SMILES: C[C@H](C#N)Nc1cc(-n2ncc3cc(C#N)c(N)nc32)ncc1-n1cc(C2CCC(CCN3C[C@H](C)N(c4ccc(C5CCC(=O)NC5=O)cc4)C[C@H]3C)CC2)nn1 (stereo partly drawn) [P-215]
LVL THP1 HTRF YMIN [2]: 0.7%
DC50 [2]: < 1 nM

SMILES: CC(C#N)Nc1cc(-n2ncc3cc(C#N)cnc32)ncc1-n1cc(C2CCC(C(C)CN3CCN(c4ccc(C5CCC(=O)NC5=O)cc4)CC3)CC2)nn1 (stereo not drawn) [P-213]
LVL THP1 HTRF YMIN [2]: 1.7%
DC50 [2]: 2 nM

SMILES: C[C@H](C#N)Nc1cc(-n2ncc3cc(C#N)cnc32)ncc1-n1cc([C@H]2CC[C@](O)(CCN3CCN(c4ccc(C5CCC(=O)NC5=O)cc4)CC3)CC2)nn1 (stereo partly drawn) [P-226, 1-(4-(((R)-1-cyanoethyl)amino)-5-(4-(4-(2-(4-(4-(2,6-dioxopiperidin-3-yl)phenyl)piperazin-1-yl)ethyl)-4-hydroxycyclohexyl)-1H-1,2,3-triazol-1-yl)pyridin-2-yl)-1H-pyrazolo[3,4-b]pyridine-5-carbonitrile]
LVL THP1 HTRF YMIN [2]: 2.1%
DC50 [2]: 5 nM

SMILES: C[C@H](C#N)Nc1cc(-n2ncc3cc(C#N)cnc32)ncc1C(=O)N[C@H]1CC[C@H](CCN2CC3COCC(C2)N3c2ccc(C3CCC(=O)NC3=O)cc2)CC1 (stereo partly drawn) [P-194]
LVL THP1 HTRF YMIN [2]: 39.8%
DC50 [2]: 4040 nM

SMILES: CC1CN(CC[C@H]2CC[C@H](c3cn(-c4cnc(-n5ncc6cc(C#N)cnc65)cc4N[C@H](C)C#N)nn3)CC2)CCC1c1ccc([C@@]2(F)CCC(=O)NC2=O)cc1 (single isomer, unassigned) [P-332]
LVL THP1 HTRF YMIN [2]: 20.7%
DC50 [2]: 261 nM

SMILES: C[C@H](C#N)Nc1cc(-n2ncc3cc(C#N)cnc32)ncc1-n1cc(C2CCC(CCN3[C@H](C)CN(c4ccc(C5CCC(=O)NC5=O)cc4)C[C@H]3C)CC2)nn1 (stereo partly drawn) [P-221]
LVL THP1 HTRF YMIN [2]: 1.4%
DC50 [2]: 5 nM

SMILES: C[C@H](C#N)Nc1cc(-n2ncc3cc(C#N)c(N)nc32)ncc1-n1cc(C2CCC(CCN3[C@H](C)CN(c4ccc(C5CCC(=O)NC5=O)cc4)C[C@H]3C)CC2)nn1 (stereo partly drawn) [P-220]
LVL THP1 HTRF YMIN [2]: 4.3%
DC50 [2]: 6 nM

SMILES: C[C@H](C#N)Nc1cc(-c2ccc3cc(C#N)cnn23)ncc1-n1cc(C2CCC(CCN3CCN(c4ccc([C@@]5(C)CCC(=O)NC5=O)cc4)CC3)CC2)nn1 (stereo partly drawn) [P-230]
LVL THP1 HTRF YMIN [2]: 2.8%

SMILES: CS(=O)(=O)N1CCC(Nc2cc(-n3ncc4cc(C#N)c(N)nc43)ncc2-n2cc(C3CCC(CCN4CCN(c5ccc(C6CCC(=O)NC6=O)cc5)CC4)CC3)nn2)CC1 (stereo not drawn) [P-217]
LVL THP1 HTRF YMIN [2]: 1.6%

SMILES: C[C@H](C#N)Nc1cc(-n2ncc3cc(C#N)cnc32)ncc1-n1cc([C@H]2CC[C@H](CCN3CCC(c4ccc([C@@]5(C)CCC(=O)NC5=O)cc4)C(F)C3)CC2)nn1 (stereo in doubt) [P-310]
LVL THP1 HTRF YMIN [2]: 1.3%
DC50 [2]: 3.6 nM

SMILES: C[C@H](C#N)Nc1cc(-n2ncc3cc(C#N)cnc32)ncc1-n1cc([C@H]2CC[C@H](CCN3CCC(n4ccc(C5(F)CCC(=O)NC5=O)cc4=O)CC3)CC2)nn1 (stereo partly drawn) [P-349]
LVL THP1 HTRF YMIN [2]: 14.6%
DC50 [2]: 29.7 nM

SMILES: C[C@H](C#N)Nc1cc(-n2ncc3cc(C#N)cnc32)ncc1-n1cc([C@H]2CC[C@H](CCN3CC[C@H](c4ccc([C@@]5(C)CCC(=O)NC5=O)cc4)C[C@H]3C)CC2)nn1 (single isomer, unassigned) [P-282]
LVL THP1 HTRF YMIN [2]: 1.0%
DC50 [2]: 3.4 nM

SMILES: C[C@H](C#N)Nc1cc(-n2ncc3cc(C#N)c(N)nc32)ncc1C(=O)N[C@H]1CC[C@H](CCN2CCN(c3ccc([C@@]4(C)CCC(=O)NC4=O)cc3)CC2)CC1 [P-250]
LVL THP1 HTRF YMIN [2]: 2.4%
DC50 [2]: 1.2 nM

The next lines start with the values.

LVL THP1 HTRF YMIN [2]: 5.2%
DC50 [2]: 8 nM
SMILES: C[C@H](C#N)Nc1cc(-n2ncc3ccc(N4C[C@H]5C[C@@H]4CO5)nc32)ncc1-n1cc([C@H]2CC[C@H](CCN3CCC(c4ccc([C@@]5(F)CCC(=O)NC5=O)cc4)CC3)CC2)nn1 (single isomer, unassigned) [P-513]

LVL THP1 HTRF YMIN [2]: 1.9%
DC50 [2]: 3.3 nM
SMILES: N#Cc1cnc2c(cnn2-c2cc(N[C@H]3CCC[C@H]3O)c(-n3cc([C@H]4CC[C@H](CCN5CCN(c6ccc(C7CCC(=O)NC7=O)cc6)CC5)CC4)nn3)cn2)c1 (stereo partly drawn) [P-402]

LVL THP1 HTRF YMIN [2]: 65.39%
DC50 [2]: 1000 nM
SMILES: C[C@H](C#N)Nc1cc(Nc2ncc(C#N)cc2Cl)ncc1-n1cc([C@H]2CC[C@H](CCN3CCN(c4ccc(N5CCC(=O)NC5=O)cc4)[C@@H]4CCC[C@@H]43)CC2)nn1 (single isomer, unassigned) [P-506]

LVL THP1 HTRF YMIN [2]: 18.9%
DC50 [2]: 293 nM
SMILES: C[C@H](C#N)Nc1cc(-n2ncc3cc(C#N)cnc32)ncc1-n1cc([C@H]2CC[C@H](CCN3CC[C@H](Oc4ccc(N5CCC(=O)NC5=O)cc4)C3)CC2)nn1 [P-465]

LVL THP1 HTRF YMIN [2]: 8.6%
DC50 [2]: 40.6 nM
SMILES: C[C@H](C#N)Nc1cc(-n2ncc3cc(C#N)cnc32)ncc1-n1cc([C@H]2CC[C@H](CCN3CCN(c4ccc(N5CCC(=O)NC5=O)cc4)[C@@H](C)C3)CC2)nn1 [P-356]

LVL THP1 HTRF YMIN [2]: 52.3%
DC50 [2]: 1000 nM
SMILES: C[C@H](C#N)Nc1cc(-n2ncc3cc(C#N)cnc32)ncc1C(=O)N[C@H]1CC[C@H](CCN2CC[C@H]3[C@@H]2CCN3c2ccc(N3CCC(=O)NC3=O)c(F)c2)CC1 [P-484]

LVL THP1 HTRF YMIN [2]: 4.0%
DC50 [2]: 13.7 nM
SMILES: C[C@H](C#N)Nc1cc(-n2ncc3cc(C#N)cnc32)ncc1-n1cc([C@H]2CC[C@H](CCN3CCCN(c4ccc(C5CCC(=O)NC5=O)cc4)CC3)CC2)nn1 (stereo partly drawn) [P-354]

LVL THP1 HTRF YMIN [2]: 5.3%
DC50 [2]: 1.9 nM
SMILES: C[C@H](C#N)Nc1cc(-n2ncc3cc(C#N)cnc32)ncc1-n1cc([C@H]2CC[C@H](CCN3CCC(F)(c4ccc([C@@]5(C)CCC(=O)NC5=O)cc4)CC3)CC2)nn1 (single isomer, unassigned) [P-424]
